The CheMixHub viscosity set

Test: xn = mol fraction of the nth substance listed

O=C(O)CCl + O
293.35 K, 101 kPa
Conditions | viscosity [mPa·s]
x1 = 0.01308 | 11070
x1 = 0.02204 | 12080
x1 = 0.02477 | 11950
x1 = 0.0251 | 11580
x1 = 0.03355 | 12540
x1 = 0.05294 | 15100

ClC(Cl)Cl + CCCCn1cc[n+](C)c1.F[B-](F)(F)F
298.15 K, 101 kPa
Conditions | viscosity [mPa·s]
x1 = 0.1079 | 92.5
x1 = 0.2033 | 73.3
x1 = 0.7028 | 9.24

ClC(Cl)Cl + CCCCCCCCCCO
viscosity [mPa·s], 101 kPa
Conditions | 303.15 K | 313.15 K
x1 = 0.0523 | 8.774 | 6.174
x1 = 0.1025 | 7.938 | 5.59
x1 = 0.1519 | 7.108 | 5.068
x1 = 0.1992 | 6.311 | 4.603
x1 = 0.2501 | 5.65 | 4.121
x1 = 0.2992 | 5.021 | 3.726
x1 = 0.3497 | 4.374 | 3.291
x1 = 0.4005 | 3.838 | 2.935
x1 = 0.451 | 3.293 | 2.571
x1 = 0.5 | 2.873 | 2.259
x1 = 0.5504 | 2.439 | 1.974
x1 = 0.5991 | 2.098 | 1.697
x1 = 0.6496 | 1.778 | 1.48
x1 = 0.699 | 1.501 | 1.251
x1 = 0.7508 | 1.277 | 1.076
x1 = 0.799 | 1.052 | 0.911
x1 = 0.8513 | 0.916 | 0.77
x1 = 0.8999 | 0.784 | 0.661
x1 = 0.9501 | 0.651 | 0.561

CCOCCOCC + COCCOCCO
viscosity [mPa·s], 101.33 kPa
Conditions | 298.15 K | 308.15 K
x1 = 0.0146 | 3.47 | 2.55
x2 = 0.0162 | 0.621 | 0.538
x2 = 0.0416 | 0.646 | 0.559
x2 = 0.0613 | 0.664 | 0.574
x2 = 0.0967 | 0.703 | 0.6
x2 = 0.1691 | 0.779 | 0.666
x2 = 0.2291 | 0.85 | 0.718
x2 = 0.2741 | 0.916 | 0.765
x2 = 0.3082 | 0.964 | 0.809
x2 = 0.344 | 1.014 | 0.849
x2 = 0.4006 | 1.115 | 0.929
x2 = 0.4593 | 1.232 | 1.017
x2 = 0.5082 | 1.346 | 1.097
x2 = 0.5635 | 1.492 | 1.203
x2 = 0.6145 | 1.65 | 1.306
x2 = 0.6552 | 1.793 | 1.423
x2 = 0.6969 | 1.949 | 1.503
x2 = 0.7526 | 2.186 | 1.654
x2 = 0.8075 | 2.441 | 1.823
x2 = 0.8567 | 2.699 | 1.995
x2 = 0.9074 | 2.985 | 2.19
x2 = 0.9515 | 3.253 | 2.386

ClC(Cl)Cl + CCOC(C)=O
303.15 K, 101.3 kPa
Conditions | viscosity [mPa·s]
x2 = 0.1062 | 0.5361
x2 = 0.2031 | 0.5455
x2 = 0.305 | 0.5471
x2 = 0.4094 | 0.5381
x2 = 0.5069 | 0.5255
x2 = 0.6112 | 0.5028
x2 = 0.808 | 0.4504
x2 = 0.9027 | 0.4254
